Laboratory results: BindingDB's records for doi:10.1021/jm00028a008 (1994)

These compounds were tested against Oxytocin receptor (Cavia porcellus) (assay: Inhibition of radioligand [3H]OT binding to oxytocin receptor (OT) in guinea pig myometrium membrane).

SMILES | Kd [nM]
CC[C@H](C)[C@@H]1NC(=O)[C@@H](Cc2ccc(OC)cc2)NC(=O)CC2(CCCCC2)SSC[C@@H](C(=O)N(C)CC(=O)N[C@@H](CCCN=C(N)N)C(=O)NCC(N)=O)NC(=O)[C@H](CC(N)=O)NC(=O)[C@H](CCC(N)=O)NC1=O [[Mca1,D-Tyr(OMe)2,Sar7]AVT] | 18
CCOc1ccc(C[C@H]2NC(=O)CC3(CCCCC3)SSC[C@@H](C(=O)N(C)CC(=O)N[C@@H](CCCN=C(N)N)C(=O)NCC(N)=O)NC(=O)[C@H](CC(N)=O)NC(=O)[C@H](CCC(N)=O)NC(=O)[C@H]([C@@H](C)CC)NC2=O)cc1 [[Mpa1,D-Tyr(OEt)2,Sar7]AVT] | 15
CN(CC(=O)N[C@@H](CCCNC(=N)N)C(=O)NCC(N)=O)C(=O)[C@@H]1CSSC2(CCCCC2)CC(=O)N[C@@H](Cc2ccccc2)C(=O)N[C@@H](Cc2ccccc2)C(=O)N[C@@H](CCC(N)=O)C(=O)N[C@@H](CC(N)=O)C(=O)N1 [[Mca1,D-Phe2,Sar7]AVP] | 7
CCOc1ccc(C[C@H]2NC(=O)CC3(CCCCC3)SSC[C@@H](C(=O)N(C)CC(=O)N[C@@H](CCCN=C(N)N)C(=O)NCC(N)=O)NC(=O)[C@H](CC(N)=O)NC(=O)[C@H](CCC(N)=O)NC(=O)[C@H](Cc3ccccc3)NC2=O)cc1 [[Mca1,D-Tyr(OEt)2,Sar7]AVP] | 21
